Laboratory results published in paper PMC3225327 (Journal of Biomedical Science, 2011).
pIC50: −log10 of the molar value. “Also recorded” adds a separate entry of the source.

What was measured:
[1] = tested on: ovalbumin-induced airway hyperresponsiveness; assay: Airway hyperresponsiveness, FlexiVent (RL, Cdyn) in OVA-sensitized and challenged mice; format: in vivo, BABL/c mice
Procedure: According to the schedule (Figure 1), ten female BABL/c mice in each group were sensitized by an intraperitoneal (i.p.) injection of 20 μg of OVA emulsified in 2.25 mg of an aluminum hydroxide gel, prepared from aluminum sulfate hexadecahydrate, in a total volume of 100 μl on days 0 and 14. On day 21, these mice were injected with (i.p.) 100 μl of a mixture of 1% OVA and Freund's complete adjuvant (1:1). Mice were challenged via the airway using 1% OVA in saline for 30 min on days 28, 29, and 30 by ultrasonic nebulization. After the last of OVA challenges, AHR was assessed on day 32 (48 h after 1% OVA provocation) in each group. […] For comparison, sham-treated mice were challenged with saline instead of 1% OVA (non-challenged). […] AHR was assessed using two methods: (1) in anesthetized ventilated mice, AHR was assessed as previously described by measuring changes in the airway resistance (RL, cmH2O/ml/sec) and lung dynamic compliance (Cdyn, ml/cmH2O) after challenge with aerosolized methacholine (MCh, 0.78~25 mg/ml) using the FlexiVent system (SCIREQ, Montreal, Quebec, Canada). Anesthetized (urethane 600 mg/kg and chloralose 120 mg/kg, i.p.), tracheostomized (stainless-steel cannula, 18 G) mice were mechanically ventilated (at 150 breaths/min, with a tidal volume of 10 ml/kg, positive end-expiratory pressure of 3 cmH2O). (2) in unrestrained animals by barometric plethysmography using a whole-body plethysmograph (WBP) and analyzed using software of Life Science Suite P3 Analysis Modules (Gould, LDS Test and Measurement LLC, Valley View, OH, USA). Mice were placed into the main chamber of the WBP, and the baseline enhanced pause (Penh) value was determined.

[2] = tested on: inflammatory cells in bronchoalveolar lavage fluid; assay: Inflammatory cell counts in BALF of sensitized and challenged mice; format: in vivo, BABL/c mice; details: 3~30 μmol/kg p.o.
Procedure: According to the schedule (Figure 1), ten female BABL/c mice in each group were sensitized by an intraperitoneal (i.p.) injection of 20 μg of OVA emulsified in 2.25 mg of an aluminum hydroxide gel, prepared from aluminum sulfate hexadecahydrate, in a total volume of 100 μl on days 0 and 14. On day 21, these mice were injected with (i.p.) 100 μl of a mixture of 1% OVA and Freund's complete adjuvant (1:1). Mice were challenged via the airway using 1% OVA in saline for 30 min on days 28, 29, and 30 by ultrasonic nebulization. After the last of OVA challenges, AHR was assessed on day 32 (48 h after 1% OVA provocation) in each group. […] For comparison, sham-treated mice were challenged with saline instead of 1% OVA (non-challenged). […] AHR was assessed using two methods: (1) in anesthetized ventilated mice, AHR was assessed as previously described by measuring changes in the airway resistance (RL, cmH2O/ml/sec) and lung dynamic compliance (Cdyn, ml/cmH2O) after challenge with aerosolized methacholine (MCh, 0.78~25 mg/ml) using the FlexiVent system (SCIREQ, Montreal, Quebec, Canada). Anesthetized (urethane 600 mg/kg and chloralose 120 mg/kg, i.p.), tracheostomized (stainless-steel cannula, 18 G) mice were mechanically ventilated (at 150 breaths/min, with a tidal volume of 10 ml/kg, positive end-expiratory pressure of 3 cmH2O). (2) in unrestrained animals by barometric plethysmography using a whole-body plethysmograph (WBP) and analyzed using software of Life Science Suite P3 Analysis Modules (Gould, LDS Test and Measurement LLC, Valley View, OH, USA). Mice were placed into the main chamber of the WBP, and the baseline enhanced pause (Penh) value was determined. […] Twenty-four hours after Penh determination, these mice were anesthetized with pentobarbital (50 mg/kg, i.p.), and the lungs were lavaged via a tracheal tube with PBS (1 × 1.0 ml, 37°C). After lavage, blood was collected from the jugular vein and allowed to sit so that it would coagulate. The collected bronchoalveolar lavage fluid (BALF) and coagulated blood were respectively centrifuged at 630 g for 7 min and at 3700 g for 10 min at 4°C. After centrifugation, the BALF and serum supernatants were stored at -20°C until determination of cytokines, including interleukin (IL)-2, IL-4, IL-5, tumor necrosis factor (TNF)-α, and interferon (IFN)-γ by flow cytometric methods using mouse T helper (Th)1/Th2 cytokine CBA kits, and of total immunoglobulin (Ig)E or IgG2a using ELISA kits (Pharmingen, San Diego, CA, USA) according to the respective recommendations of the manufacturers. OVA-specific IgE was measured as described previously. Wells were coated with 100 μl of OVA (20 μg/ml) instead of the capture antibody. Levels are expressed in arbitrary units, where 1 arbitrary unit equals the optical density of the sample divided by the optical density of unchallenged mouse serum or BALF (standard). The BALF pellet was resuspended in ACK lysing buffer (1.658 g NH4Cl, 0.2 g KHCO3 and 1.44 mg EDTA in 200 ml of water) to lyse the residual erythrocytes in each sample. The number of inflammatory cells was counted using a hemocytometer (Hausser Scientific, Horsham, PA, USA). Cytospun slides were stained and differentiated in a blinded fashion by counting at least 100 cells under light microscopy. All undetectable data (< 1 pg/ml) of cytokines were taken as 0 pg/ml.

[3] = tested on: PDE5; assay: Inhibition of PDE5 activity, two-step procedure; format: biochemical; details: homogenate of guinea pig lungs or hearts
Procedure: Activities of PDE1~5 in the homogenate of guinea pig lungs or hearts were measured by a two-step procedure according to the previous method, using cAMP with [^3H]-cAMP or cGMP with [^3H]-cGMP as substrates. […] The reagents and homogenate were mixed on ice, and the reaction was initiated by transferring the mixture to a water bath at 37°C. Following a 30-min incubation, the reaction was stopped by transferring the reaction vessel to a bath of boiling water for 3 min. After cooling on ice, 20 μl of a 1 mg/ml solution of Crotalus atrox snake venom was added to the reaction mixture, and the mixture was incubated at 37°C for 10 min. Unreacted [^3H]-cAMP or [^3H]-cGMP was removed by the addition of 500 μl of a 1-in-1 Tris-HCl (40 mM) buffer suspension of Dowex resin (1 × 8-200) with incubation on ice for 30 min. Each tube was then centrifuged at 3700 g for 2 min, and 150 μl of the supernatant was removed for liquid scintillation counting. […] The total protein in each fraction used was assayed according to a previous method. PDE activities are reported as nmol/mg/min.

[4] = 3~30 μmol/kg p.o., MCh 6.25~25 mg/ml

Structure (SMILES): COc1cc(O)c2c(c1)O[C@H](c1ccc(OC)c(OC)c1)CC2=O [HDME, hesperetin-7,3'-O-dimethylether]
- RL value at the baseline ([1]; 3 μmol/kg p.o.): 1.06 ± 0.05 cmH2O/ml/s
- RL value of PBS nebulization ([1]; 3 μmol/kg p.o.): 1.10 ± 0.07 cmH2O/ml/s
- RL value at the baseline ([1]; 10 μmol/kg p.o.): 1.08 ± 0.06 cmH2O/ml/s
- RL value of PBS nebulization ([1]; 10 μmol/kg p.o.): 1.06 ± 0.04 cmH2O/ml/s
- RL value at the baseline ([1]; 30 μmol/kg p.o.): 1.09 ± 0.07 cmH2O/ml/s
- RL value of PBS nebulization ([1]; 30 μmol/kg p.o.): 1.07 ± 0.06 cmH2O/ml/s
- effect on MCh-induced decrease of lung dynamic compliance (Cdyn) [1, 4]: significantly suppressed
- effect on MCh-induced increase of airway resistance (RL) [1, 4]: significantly suppressed
- effect on increase in number of eosinophils in BALF [2]: significantly suppressed; also recorded: abolished
- effect on increase in number of lymphocytes in BALF [2]: significantly suppressed
- effect on increase in number of macrophages in BALF [2]: significantly suppressed
- effect on increase in number of neutrophils in BALF [2]: significantly suppressed
- effect on increase in number of total inflammatory cells in BALF [2]: significantly suppressed
- pIC50 [3]: < 4.00
